Assay [1] has as its system 5HT uptake (rat cerebral cortex synaptosomes). Briefly: Synaptosomal uptake of 3H-serotonin (3H-5HT), inhibition in vitro. The following applies: rat cortical synaptosomes, 37° C., 5 min, 50 nM 3H-5HT. The assay is classed as biochemical, Male Sprague-Dawley rats. On the procedure: (§1) This general procedure is set forth by Wong et al., in Drug Development Research 6:397-403 (1985).
(§2) Male Sprague-Dawley rats (110-150 g) from Harlan Industries (Cumberland, Ind.) were fed a Purina Chow ad libitum for at least 3 days before being used in the studies. Rats were killed by decapitation. Whole brains were removed and dissected. Cerebral cortex was homogenized in 9 volumes of a medium containing 0.32 M sucrose and 10 mM glucose. Crude synaptosomal preparations were isolated after differential centrifugation at 1,000 g for 10 min. and 17,000 g for 28 min. The final pellets were suspended in the same medium and kept in ice until use within the same day.
(§3) Synaptosomal uptake of ^3 H-serotonin(^3 H-5-hydroxytryptaine, ^3 H-5HT) and ^14 C-l-norepinephrine (^14 C-NE) was determined as follows. Cortical synaptosomes (equivalent to 1 mg of protein) were incubated at 37° C. for 5 min in 1 ml of Krebs-bicarbonate medium containing also 10 mM glucose, 0.1 mM iproniazid, 1 mM ascorbic acid, 0.17 mM EDTA, 50 nM ^3 H-5HT and 100 nM ^14 C-NE. The reaction mixture was immediately diluted with 2 ml of ice-chilled Krebs-bicarbonate buffer and filtered under vacuum with a cell harvester (Brandel, Gaithersburg, Md.). […] Radioactivity was measured by a liquid scintillation spectrophotometer. […]

The test system of assay [2] is norepinephrine uptake (rat cerebral cortex synaptosomes). Briefly: Synaptosomal uptake of 14C-l-norepinephrine (14C-NE), inhibition in vitro. The assay is classed as biochemical, Male Sprague-Dawley rats. The following applies: rat cortical synaptosomes, 37° C., 5 min, 100 nM 14C-NE. How it is done:
as §1, §2, §3

The values that follow come from patent US4996235A, “3,4-diphenylbutanamines” (Eli Lilly and Company, priority 1987, dated 1991).

Counter-ions that a name gives are not always drawn.

As a reminder, the IC50 is the concentration at which inhibition is half-maximal. For `CNCCC(Cc1ccc(C(F)(F)F)cc1)c1ccccc1` (stereo not shown) [Example 1, N-Methyl-3-phenyl-4-(4-trifluoromethylphenyl)-butanaminium chloride], the half-maximal inhibitory concentration (IC50) was 250 nM in assay [1] and 7600 nM in assay [2].
The matching figures for `CNCCC(Cc1ccccc1C)c1ccccc1` (stereo not shown) [Example 2, N-Methyl-3-phenyl-4-(2-methylphenyl)-butanaminium tosylate]: 330 nM and 100 nM.
